Drawing on patent publication US8188277B2, “Aromatic compounds for suppressing the generation of collagen” (Otsuka Pharmaceutical Co., Ltd., priority 2004, dated 2012), this text covers IC50 and melting point for 22 compounds.

Counter-ions that a name gives are not always drawn. Like-named read-outs stand apart in the source and are kept apart here.

Data set [1] has as its system LI90 cells, a human stellate cell line. In words: Collagen synthesis inhibition (3H-proline incorporation) in TGF-β1-stimulated LI90 cells. As to conditions: 10 pM h-TGF-β1, 16 hours with test compound, 3H-proline labelling 24 hours, concentration at which T/C = 0.5, read-out: Collagen synthesis inhibitory activity IC50. It is filed as cell-based. As for the experimental part:
The cultured cells were then washed with D-PBS(−) (DULBECCO's phosphate buffered saline), and subsequently further cultured for 3 days in MEM (Eagle's minimum essential medium) supplemented with 0.1% fetal bovine serum. The cultured cells were again washed with D-PBS(−), and cultured for 16 hours in MEM (0.1% fetal bovine serum with respect to a total MEM volume) which contained a test compound and 10 pM h-TGF-β1 (human transforming growth factor β1). Next, the cultured LI90 cells were washed with D-PBS(−), and cultured for 24 hours in MEM containing ^3H-proline (radioactive labelled compound) and 0.25 mM ascorbic acid. The produced collagen was labelled with RI (radioactive isotope). From this culture supernatant, an acid-soluble fraction was extracted. Radioactivity was measured for this fraction. The measured value was taken to be the collagen synthesis activity.
Radioactivity of the culture supernatant cultured with the test compound was compared with that of the culture supernatant cultured without the test compound to calculate a collagen synthesis inhibitory activity (T/C) and determine a concentration (μM) at which collagen synthesis was inhibited by 50% (IC50=a concentration of the test compound at which T/C corresponded to 0.5). T/C=(Radioactivity of culture supernatant cultured with the test compound)/(radioactivity of culture supernatant cultured without the test compound)

For the compound `Cc1cc(N(C)CC(=O)N2CCN(Cc3ccc4c(c3)OCO4)CC2)ccc1Oc1ccc(NC(=O)c2ccc(C(F)(F)F)cc2)cn1` [Example No. 1503, N-[6-(4-{[2-(4-piperonylpiperazin-1-yl)-2-oxoethyl]methylamino}-2-methylphenoxy)pyridin-3-yl]-4-trifluoromethylbenzamide], in data set [1] (Homo sapiens), the IC50 (usually the point on the concentration scale where inhibition reaches its midpoint) was 7.8 nM.
For the compound `O=C(Nc1ccc(Oc2ccc(N3CCC(CC(=O)N4CCN(Cc5ccc6c(c5)OCO6)CC4)CC3)cc2)nc1)c1ccc(C(F)(F)F)cc1` [Example No. 319, N-[6-(4-{4-[2-(piperonyl-piperazin-1-yl)-2-oxoethyl]piperidin-1-yl}phenoxy)-pyridin-3-yl]-4-trifluoromethylbenzamide], in data set [1], the IC50 was 1.9 nM.
Take `CN(C(=O)CN1CCOCC1)C1CCN(c2ccc(Oc3ccc(NC(=O)c4ccc(Cl)c(Cl)c4)cc3)cc2)CC1` [compound 2572]: the melting point (in general, the temperature of the solid-liquid transition) lay in the range of 157 to 160 °C.
Take `O=C(Nc1ccc(Oc2ccc(C(O)CN3CCOCC3)cc2)c(F)c1)c1ccc(Cl)c(Cl)c1` (stereo not shown) [compound 2677]: the melting point was in the range of 142 to 145 °C.
`O=C(C1CCN(c2ccc(Oc3ccc(NS(=O)(=O)c4ccc(Cl)c(Cl)c4)cn3)cc2)CC1)N1CCN(Cc2ccccc2)CC1` [compound 2710, N-(6-{4-[4-(4-benzylpiperazine-1-carbonyl)piperidin-1-yl]phenoxy}pyridin-3-yl)-3,4-dichlorobenzenesulfonamide] gave a melting point of 185 to 189 °C.
As to `Cc1cc(N(C)CC(=O)N2CCN(Cc3ccc4c(c3)OCO4)CC2)ccc1Oc1ccc(NC(=O)c2ccc(-n3cccc3)cc2)cn1` [compound 2711, N-[6-(4-{[2-(4-piperonylpiperazin-1-yl)-2-oxoethyl]methylamino}-2-methylphenoxy)pyridin-3-yl]-4-pyrrole-1-ylbenzamide], the melting point fell in the range of 163.1 to 166.5 °C.
Still for that read-out and setting: under `Cc1cc(N(C)CC(=O)N2CCN(Cc3ccccc3)CC2)ccc1Oc1ccc(NC(=O)c2ccc(C(F)(F)F)cc2)cn1` [compound 1515] stands 110 to 111 °C; under `Cc1cc(N2CCCN(Cc3ccc4c(c3)OCO4)C2=O)ccc1Oc1ccc(NC(=O)c2ccc(Cl)c(Cl)c2)cn1` [compound 1184], 122 to 124 °C; under `CCN(CC(=O)N1CCN(Cc2ccc3c(c2)OCO3)CC1)c1ccc(Oc2ccc(NS(=O)(=O)c3ccc(Cl)c(Cl)c3)cn2)c(F)c1` [compound 2695, N-[6-(4-{[2-(4-piperonylpiperazin-1-yl)-2-oxoethyl]ethylamino}-2-fluorophenoxy)pyridin-3-yl]-3,4-dichlorobenzenesulfonamide], 163 to 166 °C.
For the compound `O=C(Nc1ccc(Oc2ccc(CCC(=O)N3CCN(Cc4ccc5c(c4)OCO5)CC3)cc2)nc1)c1ccc(C(F)(F)F)cc1` [Example No. 1039, N-(6-{4-[3-(4-piperonylpiperazin-1-yl)-3-oxopropyl]phenoxy}pyridin-3-yl)-4-trifluoromethylbenzamide], in data set [1] (Homo sapiens), the IC50 came to 22 nM.
`CC(=O)N(c1ccc(CCC(=O)N2CCN(Cc3ccc4c(c3)OCO4)CC2)cc1)c1ccc(NC(=O)c2ccc(Cl)c(Cl)c2)cn1` [compound 2099, N-[6-(Acetyl{4-[3-oxo-3-(4-piperonylpiperazin-1-yl)propyl]phenyl}amino)pyridin-3-yl]-3,4-dichlorobenzamide] returned a melting point of 150 to 165 °C.
Compound `O=C(Nc1ccc(Oc2ccc(C(=O)N3CCOCC3)cc2)c(F)c1)c1ccc(Cl)c(Cl)c1` [Example No. 11] yielded a melting point of 203 to 204 °C.
In turn, `CCOC(=O)c1ccc(N2CCCN(c3ccc(Oc4ccc(NC(=O)c5ccc(C(F)(F)F)cc5)cn4)c(C)c3)C2=O)cc1` [compound 1188] registered a melting point of 160 to 161 °C.
On to `O=C(Nc1ccc(Cl)c(Cl)c1)c1ccc(Oc2ccc(CCC(=O)N3CCN(Cc4ccc5c(c4)OCO5)CC3)cc2)nc1` [Example No. 2100, 6-{4-[3-(4-piperonylpiperazin-1-yl)-3-oxopropyl]phenoxy}-N-(3,4-dichlorophenyl)nicotinamide], for which the IC50 in data set [1] (Homo sapiens) amounted to 79 nM.
In the case of `O=C(CN1CCOCC1)c1ccc(Oc2ccc(NC(=O)c3ccc(Cl)c(Cl)c3)cc2F)cc1` [compound 2563], the melting point is 177 to 178 °C.
For `O=C(Nc1ccc(Oc2ccc(C(=O)N3CCOCC3)cc2)cc1)c1ccc(Cl)c(Cl)c1` [Example No. 10], the melting point lay within 189 to 192 °C.
`Cc1cc(N(C)CC(=O)N2CCN(Cc3ccoc3)CC2)ccc1Oc1ccc(NC(=O)c2ccc(C(F)(F)F)cc2)cn1` (as salt: hydrochloride) [compound 792] returned a melting point of 158.5 to 161 °C.
Turning to `CN(CC(=O)N1CCN(Cc2ccc3c(c2)OCO3)CC1)c1ccc(Oc2ccc(NC(=O)c3ccc(C(F)(F)F)cc3)cn2)c(F)c1` [compound 776], the melting point was 220 to 221 °C.
Take `Cc1cc(N2CCC(CC(=O)N3CCN(Cc4ccc5c(c4)OCO5)CC3)CC2)ccc1Oc1ccc(NS(=O)(=O)c2ccc(C(F)(F)F)cc2)cn1` [compound 2703, N-[6-(4-{4-[2-(4-piperonylpiperazin-1-yl)-2-oxoethyl]piperidin-1-yl}-2-methylphenoxy)pyridin-3-yl]-4-trifluoromethylbenzenesulfonamide]: the melting point was 156 to 158 °C.
In turn, `CCN(CC(=O)N1CCN(Cc2ccccc2)CC1)c1ccc(Oc2ccc(NC(=O)c3ccc(Cl)c(Cl)c3)cn2)c(C)c1` [compound 1514] had a melting point of 102 to 105 °C.
`CCN(CC(=O)N1CCN(Cc2ccc3c(c2)OCO3)CC1)c1ccc(Oc2ccc(NS(=O)(=O)c3ccc(C(F)(F)F)cc3)cn2)c(F)c1` [compound 2712, N-[6-(4-{[2-(4-piperonylpiperazin-1-yl)-2-oxoethyl]ethylamino}-2-fluorophenoxy)pyridin-3-yl]-4-trifluoromethylbenzenesulfonamide] yielded a melting point of 177.8 to 180.1 °C.
As to `Cc1cc(N2CCCN(Cc3ccc4c(c3)OCO4)C2=O)ccc1Oc1ccc(NC(=O)c2ccc(C(F)(F)F)cc2)cn1` [compound 1183], the melting point is 165 to 166 °C.
